Test system: 475296-252-R-J1-PDC spheroid viability
Test: Anticancer human tumor 475296-252-R-J1-PDC patient-derived rectal carcinoma cell line growth inhibition [PI3K]
Conditions: spheroids with HUVEC and MSC; for IC50: curve of first compound; for viability, T/C: stronger effect = lower value
How it was run: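 Three cell types, namely tumor cells, endothelial cells and mesenchymal stem cells, formed each spheroid. Combinations with four PI3K inhibitors were screened at clinically achievable concentrations decreasing by half-log, and spheroid viability was recorded.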
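Further: spheroids exposed to agents for seven days before readout.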

**Q.** For CC1(C)CCC(Nc2ncc(C(F)(F)F)c(-c3c[nH]c4c(P(C)(C)=O)c(C#N)ccc34)n2)CN1 (configuration not stated) + Cc1nc(NC(=O)N2CCCC2C(N)=O)sc1-c1ccnc(C(C)(C)C(F)(F)F)c1, which IC50 (second compound 0.0316 µM) is on record?
**A.** Its IC50 is greater than 10 µM.

**Q.** And the IC50 (second compound 0.1 µM)?
**A.** Its IC50 is greater than 10 µM.

**Q.** And the IC50 (second compound 0.316 µM)?
**A.** The IC50 was greater than 10 µM.

**Q.** What about the IC50 (second compound 1 µM) of the same compound?
**A.** The IC50 was greater than 10 µM.

**Q.** What about the IC50 (second compound 3.16 µM) of the same compound?
**A.** The IC50 was greater than 10 µM.

**Q.** And the IC50 (second compound 10 µM)?
**A.** The IC50 was greater than 10 µM.

**Q.** And the viability, T/C (second compound 0.0316 µM, first compound 0.0316 µM)?
**A.** The viability, T/C was 89.6%.

**Q.** And the viability, T/C (second compound 0.0316 µM, first compound 0.1 µM)?
**A.** Its viability, T/C is 90.4%.

**Q.** What about the viability, T/C (second compound 0.0316 µM, first compound 0.316 µM) of the same compound?
**A.** The viability, T/C was 119%.

**Q.** And the viability, T/C (second compound 0.0316 µM, first compound 1 µM)?
**A.** The viability, T/C was 139%.

**Q.** And the viability, T/C (second compound 0.0316 µM, first compound 3.16 µM)?
**A.** The viability, T/C was 178%.

**Q.** And the viability, T/C (second compound 0.0316 µM, first compound 10 µM)?
**A.** Its viability, T/C is 82.4%.

**Q.** What about the viability, T/C (second compound 0.1 µM, first compound 0.0316 µM) of the same compound?
**A.** Its viability, T/C is 97.2%.

**Q.** What about the viability, T/C (second compound 0.1 µM, first compound 0.1 µM) of the same compound?
**A.** The viability, T/C was 96.4%.

**Q.** What about the viability, T/C (second compound 0.1 µM, first compound 0.316 µM) of the same compound?
**A.** The viability, T/C was 106%.

**Q.** And the viability, T/C (second compound 0.1 µM, first compound 1 µM)?
**A.** Its viability, T/C is 142%.

**Q.** And the viability, T/C (second compound 0.1 µM, first compound 3.16 µM)?
**A.** The viability, T/C was 176%.

**Q.** What about the viability, T/C (second compound 0.1 µM, first compound 10 µM) of the same compound?
**A.** Its viability, T/C is 91.7%.

**Q.** What about the viability, T/C (second compound 0.316 µM, first compound 0.0316 µM) of the same compound?
**A.** Its viability, T/C is 95.2%.

**Q.** And the viability, T/C (second compound 0.316 µM, first compound 0.1 µM)?
**A.** Its viability, T/C is 104%.

**Q.** And the viability, T/C (second compound 0.316 µM, first compound 0.316 µM)?
**A.** The viability, T/C was 97.3%.

**Q.** And the viability, T/C (second compound 0.316 µM, first compound 1 µM)?
**A.** The viability, T/C was 129%.

**Q.** What about the viability, T/C (second compound 0.316 µM, first compound 3.16 µM) of the same compound?
**A.** Its viability, T/C is 193%.

**Q.** And the viability, T/C (second compound 0.316 µM, first compound 10 µM)?
**A.** Its viability, T/C is 83.2%.

**Q.** What about the viability, T/C (second compound 1 µM, first compound 0.0316 µM) of the same compound?
**A.** Its viability, T/C is 100%.

**Q.** What about the viability, T/C (second compound 1 µM, first compound 0.1 µM) of the same compound?
**A.** Its viability, T/C is 111%.

**Q.** And the viability, T/C (second compound 1 µM, first compound 0.316 µM)?
**A.** The viability, T/C was 110%.

**Q.** And the viability, T/C (second compound 1 µM, first compound 1 µM)?
**A.** The viability, T/C was 143%.

**Q.** And the viability, T/C (second compound 1 µM, first compound 3.16 µM)?
**A.** The viability, T/C was 165%.

**Q.** What about the viability, T/C (second compound 1 µM, first compound 10 µM) of the same compound?
**A.** The viability, T/C was 81.5%.

**Q.** What about the viability, T/C (second compound 3.16 µM, first compound 0.0316 µM) of the same compound?
**A.** Its viability, T/C is 99.3%.

**Q.** What about the viability, T/C (second compound 3.16 µM, first compound 0.1 µM) of the same compound?
**A.** Its viability, T/C is 106%.

**Q.** And the viability, T/C (second compound 3.16 µM, first compound 0.316 µM)?
**A.** The viability, T/C was 109%.

**Q.** What about the viability, T/C (second compound 3.16 µM, first compound 1 µM) of the same compound?
**A.** Its viability, T/C is 121%.

**Q.** What about the viability, T/C (second compound 3.16 µM, first compound 3.16 µM) of the same compound?
**A.** Its viability, T/C is 139%.

**Q.** What about the viability, T/C (second compound 3.16 µM, first compound 10 µM) of the same compound?
**A.** Its viability, T/C is 72.9%.

**Q.** And the viability, T/C (second compound 10 µM, first compound 0.0316 µM)?
**A.** The viability, T/C was 104%.

**Q.** What about the viability, T/C (second compound 10 µM, first compound 0.1 µM) of the same compound?
**A.** Its viability, T/C is 97.1%.

**Q.** And the viability, T/C (second compound 10 µM, first compound 0.316 µM)?
**A.** Its viability, T/C is 94%.

**Q.** What about the viability, T/C (second compound 10 µM, first compound 1 µM) of the same compound?
**A.** The viability, T/C was 107%.

**Q.** And the viability, T/C (second compound 10 µM, first compound 3.16 µM)?
**A.** Its viability, T/C is 121%.

**Q.** And the viability, T/C (second compound 10 µM, first compound 10 µM)?
**A.** Its viability, T/C is 62.9%.
